Values after ≈ are worked out from the molar mass of the structure shown. Read-outs that look alike come from different tables or passages of the source. Peptide text beside a SMILES is read from it.
Assays:
[1] = test system: E. coli clin. isolate; type: cell-based, Escherichia coli; conditions: clin. isolate
Source text: (§1) The American Type Culture Collection (ATCC, Rockville, MD, USA) strains and Escherichia coli MG1655 were used as standard bacterial strains. Gram-negative ATCC strains consisted of Escherichia coli (ATCC 25922), Pseudomonas aeruginosa (ATCC 27853), Acinetobacter baumannii (ATCC 19606), and Klebsiella pneumoniae (ATCC 13883). The only Gram-positive standard strain chosen for testing was Staphylococcus aureus (ATCC 29213). Clinical isolates with confirmed multidrug-resistance phenotype were obtained from different wards of the University Hospital Center, Split, Croatia. We described their origin, antibiograms, and resistance phenotype previously. In the same paper, we described the procedure for antimicrobial susceptibility testing on planktonic cells, using the microdilution method in 96-well microtiter plates.
(§2) Briefly, cells were grown on agar plates and a single colony was sampled to generate a liquid culture (LC) grown overnight at 37 °C. The culture was sampled, resuspended in fresh medium, and allowed to grow at 37 °C, until reaching the mid-exponential phase. Lysogeny broth (LB) was used in the case of the E. coli MG1655 cells. Mueller Hinton (MH) medium was used for all other bacterial strains. Serial 2-fold dilutions of the peptide (64 μM to 0.0625 μM) were prepared from peptide stock solution in PBS, and added to a final load of 5 × 10^5 CFU/mL in 100 μL total volume of medium per well in a 96-well plate (Brand 781660). Bacterial cultures were incubated with peptides for 18 h to 24 h at 37 °C. The minimum inhibitory concentration (MIC) was defined as the lowest concentration of the peptide, at which no visible bacterial growth was observed. The MIC for each of the tested peptides was determined in at least three individual assays under the same laboratory conditions. […] At the end of the incubation period for MIC or MBC, the determination of the OD600 was analyzed.

[2] = test system: P. aerug. clin. isolate; type: cell-based, Pseudomonas aeruginosa
Source text: as §1, §2

[3] = test system: K. pneum. clin. isolate; type: cell-based, Klebsiella pneumoniae
Source text: as §1, §2

[4] = test system: human erythrocytes; experiment: Hemolysis of human erythrocytes; type: cell-based; conditions: for HC10: concentration causing 10% hemolysis, 0.2% Triton = 100%; for HC10 / HC20 / HC50: 0.5% RBC in PBS, 1 h, 37 °C, absorbance 450 nm, triplicate; for HC20: concentration causing 20% hemolysis; for HC50: concentration causing 50% hemolysis
Method: Fresh blood was obtained from a healthy donor. Blood was stored in a tube containing EDTA at 4 °C and used within 24 h. Before use, 1 mL of blood was centrifuged (400× g, 10 min), and the supernatant was discarded. Moreover, 500 μL cold PBS with EDTA (1 mM) was added, mixed and centrifuged. The supernatant was discarded. Furthermore, 500 μL of cold PBS with EDTA (1 mM) was added, from which a dilution of 1% blood was made. Peptides were prepared in PBS at a 2 × concentration in 100 µL. […] The suspension was incubated at 37 °C for 1 h and centrifuged at 10,000× g for 5 min. […] After centrifugation, the supernatant was added to a 96-well microtiter plate (150–180 μL), and the absorbance was measured at 450 nm, using EnSight Multimode Plate Reader (PerkinElmer, Inc.). Each measurement was done in triplicate. […] We opted to also include the extrapolated HC50 in our results, to permit comparisons with older toxicity results. However, the HC20 measurements were used for ranking the peptides according to their selectivity and overall performance (Figure 1 and Figure 2 and Table 2).

[5] = test system: PC-3 prostate cancer cell line; type: cell-based, human
Method: (§3) Prostate cancer cells were donated by the University of Split, School of Medicine. Cells were cultured in RMPI-1640 medium, supplemented with 10% FBS, 1% Penicillin-Streptomycin, and 1% L-Glutamine. Human dermal fibroblasts were purchased from Biopredic (France) and cultured in DMEM medium, supplemented with 10% FBS and 1% Penicillin-Streptomycin. All cell lines were maintained in a humidified incubator with 5% CO2 at 37 °C. Cells were detached using the trypsin-EDTA solution and sub-cultured (7000 cells/well) in a 96-well plate overnight. Peptide stock solutions were prepared in PBS, and cancer cells were treated with 2-fold serial dilutions for 24 h at 37 °C, with 5% CO2. The toxicity of 6 selected peptides was assessed by a standard MTT assay. Treated cells were incubated with MTT working solution (0.5 mg/mL Thiazolyl Blue Tetrazolium Bromide) for 4 h at 37 °C with 5% CO2. Precipitated formazan was dissolved in 200 µL DMSO and absorbance was measured at 595 nm with EnSight Multimode Plate Reader (PerkinElmer, Inc.)

[6] = test system: S. aureus clin. isolate; type: cell-based, Staphylococcus aureus; conditions: clin. isolate
Source text: as §1, §2

[7] = test system: A. baum. clin. isolate; type: cell-based, Acinetobacter baumannii
Source text: as §1, §2

[8] = test system: human primary dermal fibroblasts; type: cell-based
Method: as §3

[9] = test system: Klebsiella pneumoniae (ATCC 13883); type: cell-based; conditions: ATCC 13883
Source text: as §1, §2

[10] = test system: Pseudomonas aeruginosa (ATCC 27853); type: cell-based; conditions: ATCC 27853
Source text: as §1, §2

[11] = test system: Acinetobacter baumannii (ATCC 19606); type: cell-based; conditions: ATCC 19606
Source text: as §1, §2

[12] = test system: Escherichia coli MG1655; type: cell-based
Source text: as §1, §2

[13] = test system: Staphylococcus aureus (ATCC 29213); type: cell-based
Source text: as §1, §2

[14] = test system: Escherichia coli (ATCC 25922); type: cell-based; conditions: ATCC 25922
Source text: as §1, §2

SMILES	MIC (E. coli clin. isolate) [1] [µM]	MIC (P. aerug. clin. isolate) [2] [µM]	MIC (K. pneum. clin. isolate) [3] [µM]	HC10 [4] [µM]	HC20 [4] [µM]	HC50 [4] [µM]	(TI/ IC50C) vs. MP1 ([5]; 24 h)	IC50 ([5]; 24 h) [µM]	TI (HC20/IC20C) ([5]; 24 h)	TI (IC50F/IC50C) ([5]; 24 h)	TI/ IC50C ([5]; 24 h)	MIC (S. aureus clin. isolate) [6] [µM]	MIC (A. baum. clin. isolate) [7] [µM]	IC50 ([8]; 24 h) [µM]	MIC (K. pneum. ATCC 13883) [9] [µM]	MIC (P. aerug. ATCC 27853) [10] [µM]	MIC (A. baum. ATCC 19606) [11] [µM]	MIC (E. coli MG1655) ([12]; MG1655) [µM]	MIC (S. aureus ATCC 29213) [13] [µM]	MIC (E. coli ATCC 25922) [14] [µM]	also measured
CC[C@H](C)[C@H](NC(=O)[C@H](CCCCN)NC(=O)[C@H](CC(C)C)NC(=O)[C@H](C)NC(=O)[C@H](CCCCN)NC(=O)[C@H](CC(C)C)NC(=O)[C@H](C)NC(=O)[C@@H](NC(=O)[C@H](CCCCN)NC(=O)[C@H](C)NC(=O)[C@@H](NC(=O)[C@@H](N)CCCCN)[C@@H](C)CC)C(C)C)C(=O)N[C@@H](C)C(=O)N[C@@H](CCCCN)C(=O)N[C@H](C(=O)N[C@@H](C)C(=O)N[C@@H](CC(C)C)C(=O)N[C@@H](CCCCN)C(=O)N[C@@H](C)C(=O)N[C@@H](CC(C)C)C(N)=O)C(C)C [PG2] (H-KIAKVALKALKIAKVALKAL-NH2)	6 (≈ 12.5 µg/mL)	6 (≈ 12.5 µg/mL)	12 (≈ 25.1 µg/mL)	3	14	18	6.8	6	6	1.7	0.28	1.5 (≈ 3.13 µg/mL)	1.5 to 3	10	3 (≈ 6.27 µg/mL)	6 (≈ 12.5 µg/mL)	1.5 (≈ 3.13 µg/mL)	16 (≈ 33.4 µg/mL)	0.75 (≈ 1.57 µg/mL)	1.5 (≈ 3.13 µg/mL)	–
CC[C@H](C)[C@H](NC(=O)CN)C(=O)N[C@@H](CCCCN)C(=O)N[C@@H](CCCCN)C(=O)N[C@@H](C)C(=O)N[C@H](C(=O)NCC(=O)N[C@@H](CCCCN)C(=O)N[C@@H](C)C(=O)N[C@@H](CC(C)C)C(=O)N[C@@H](CCCCN)C(=O)NCC(=O)N[C@@H](CC(C)C)C(=O)N[C@@H](CCCCN)C(=O)NCC(=O)N[C@@H](CC(C)C)C(=O)N[C@@H](CC(C)C)C(=O)N[C@@H](CCCCN)C(=O)N[C@@H](C)C(=O)N[C@@H](CC(C)C)C(=O)NCC(=O)N[C@@H](CCC(=O)O)C(=O)N[C@@H](CO)C(N)=O)C(C)C [A1A] (H-GIKKAVGKALKGLKGLLKALGES-NH2)	32 (≈ 72.9 µg/mL)	>64	8 (≈ 18.2 µg/mL)	25	80	–	5	12	27	2.5	0.21	4 (≈ 9.12 µg/mL)	4 to 8	30	4 (≈ 9.12 µg/mL)	64 (≈ 146 µg/mL)	2 (≈ 4.56 µg/mL)	2 (≈ 4.56 µg/mL)	1 (≈ 2.28 µg/mL)	1 (≈ 2.28 µg/mL)	HC50 * (extrapolated) ([4]; extrapolated, all concentrations tested lysed less than 50% of cells): 125 * µM; PEa(20) = SI/MIC(aureus) ([13]; ATCC 29213, 18 h): 80 µM⁻¹
CC[C@H](C)[C@H](N)C(=O)N[C@@H](CC(=O)O)C(=O)N[C@@H](Cc1c[nH]c2ccccc12)C(=O)N[C@@H](CCCCN)C(=O)N[C@@H](CCCCN)C(=O)N[C@@H](CC(C)C)C(=O)N[C@@H](CC(C)C)C(=O)N[C@@H](CC(=O)O)C(=O)N[C@@H](C)C(=O)N[C@@H](C)C(=O)N[C@@H](CCCCN)C(=O)N[C@@H](CCC(N)=O)C(=O)N[C@H](C(=O)N[C@@H](CC(C)C)C(N)=O)[C@@H](C)CC [MP1, reference compound] (H-IDWKKLLDAAKQIL-NH2)	–	–	–	20	37	170	–	–	–	–	–	–	–	–	–	–	–	–	–	–	IC50 ([5]; MTT assay, 7000 cells/well, 24 h treatment, 37 °C, 5% CO2, absorbance 595 nm, read-out: IC50C (PC-3)): 60 µM; TI (HC20/IC20C) ([5]; human erythrocytes vs PC-3): 1; TI/ IC50C ([5]; performance, product of TI and anticancer activity (1/IC50C)): 0.04; (TI/ IC50C) vs. MP1 ([5]; relative performance with respect to MP1 control peptide): 1.0; TI (IC50F/IC50C) ([5]; therapeutic index, fibroblasts vs PC-3): 2.5; IC50 ([8]; MTT assay, 7000 cells/well, 24 h treatment, 37 °C, 5% CO2, absorbance 595 nm, read-out: IC50F (Fibroblasts)): 150 µM; MIC (E. coli MG1655) ([12]; broth microdilution, LB medium, 5 × 10^5 CFU/mL, 18-24 h, 37 °C, at least three assays): >32 µM
CC[C@H](C)[C@H](NC(=O)[C@H](CCCCN)NC(=O)[C@H](CC(C)C)NC(=O)[C@H](C)NC(=O)[C@H](CCCCN)NC(=O)[C@H](CC(C)C)NC(=O)[C@H](C)NC(=O)[C@@H](NC(=O)[C@H](CCCCN)NC(=O)[C@H](C)NC(=O)[C@@H](NC(=O)[C@@H](N)CCCCN)[C@@H](C)CC)C(C)C)C(=O)N[C@@H](C)C(=O)N[C@@H](CCCCN)C(=O)NCC(=O)N[C@@H](C)C(=O)N[C@@H](CC(C)C)C(=O)N[C@@H](CCCCN)C(=O)N[C@@H](C)C(=O)N[C@@H](CC(C)C)C(N)=O [KIA1] (H-KIAKVALKALKIAKGALKAL-NH2)	12 (≈ 24.6 µg/mL)	3 (≈ 6.14 µg/mL)	12 (≈ 24.6 µg/mL)	3	6	20	1.6	–	1	1	0.07	3 (≈ 6.14 µg/mL)	1.5 (≈ 3.07 µg/mL)	15	3 (≈ 6.14 µg/mL)	6 (≈ 12.3 µg/mL)	1.5 (≈ 3.07 µg/mL)	8 (≈ 16.4 µg/mL)	1 (≈ 2.05 µg/mL)	0.75 (≈ 1.54 µg/mL)	–
